Assay results as given in patent publication US5180742A, “Quinone derivatives, their production and use” (Takeda Chemical Industries, Ltd., priority 1984, dated 1993).

Key:
5-Lipoxygenase = target: T1, 5-Lipoxygenase (Rattus norvegicus, UniProt P12527); assay: 5-Lipoxygenase inhibitory activity: 5-HETE production in RBL-1 cells (HPLC); assay type: cell-based, rat (RBL-1, rat basophilic leukemia cells); details: arachidonic acid + A 23187, 37° C., 20 minutes, read-out: 5-HETE production inhibiting effect (IC50)
T1 construct: endogenous in cells; host or cells: RBL-1 (rat basophilic leukemia cells)
T1 sequence (P12527 1-673): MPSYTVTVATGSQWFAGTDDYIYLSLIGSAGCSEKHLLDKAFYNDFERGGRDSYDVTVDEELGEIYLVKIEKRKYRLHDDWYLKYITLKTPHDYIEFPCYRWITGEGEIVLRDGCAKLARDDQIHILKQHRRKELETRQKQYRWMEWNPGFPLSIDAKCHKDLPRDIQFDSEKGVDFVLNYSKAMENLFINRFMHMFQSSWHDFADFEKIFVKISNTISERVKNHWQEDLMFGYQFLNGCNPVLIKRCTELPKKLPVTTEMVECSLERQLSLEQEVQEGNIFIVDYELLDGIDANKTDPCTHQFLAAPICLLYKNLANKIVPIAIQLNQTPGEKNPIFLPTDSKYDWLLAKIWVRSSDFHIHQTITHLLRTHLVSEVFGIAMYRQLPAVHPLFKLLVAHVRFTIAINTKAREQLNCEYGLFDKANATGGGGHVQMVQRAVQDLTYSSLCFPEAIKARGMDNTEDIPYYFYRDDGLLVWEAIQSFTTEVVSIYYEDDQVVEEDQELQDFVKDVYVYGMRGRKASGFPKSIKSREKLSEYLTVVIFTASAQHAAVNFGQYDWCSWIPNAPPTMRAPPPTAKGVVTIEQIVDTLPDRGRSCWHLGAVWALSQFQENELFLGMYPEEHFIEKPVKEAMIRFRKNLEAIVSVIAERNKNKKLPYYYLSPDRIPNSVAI
Method: 5-Lipoxygenase Inhibitory Activity
10^7 RBL-1 cells (rat basophilic leukemia cells) were suspended in 0.5 ml of MCM (mast cell medium), and test solutions (made up of 0.5 ml of MCM, 50 μg of arachidonic acid, 10 μg of A 23187 (calcium ionophore, Eli Lilly) and 1 μM, 0.1 μM, 0.01 μM and0.001 μM as the final concentration of the quinone compound, respectively) prepared previously were added respectively to the suspension, followed by reaction at 37° C. for 20 minutes. After the conclusion of the reaction, 4 ml of ethanol and 1,4-dimethoxy-2-methyl-3-(3-methoxypropyl)naphthalene as the internal reference drug were added to the reaction solution, and the mixture was shaken thoroughly and allowed to stand at room temperature for 10 minutes. Then, it was centrifuged (2000 r.p.m.) for 10 minutes, and the supernatant fluid was separated and concentrated to dryness under reduced pressure. 0.5 Milliliter of 60% aqueous methanol was added to the concentrate, and 100 μl of the resulting solution was taken and subjected to high-performance liquid chromatography to determine amount of 5-HETE (5-hydroxyeicosatetraenoic acid). Determination of 5-HETE was made through measurement of an absorption at 237 nm with a UV absorption monitor.
The 5-HETE production inhibitory effect (IE) was expressed by [formula] wherein a is a peak height or peak area corrected by the peak for the internal reference when the quinone compound is not contained; b is a peak height or peak area corrected by the peak for the internal reference when the quinone compound is contained.

[1] = test system: Immunoglobulin-G1 mediated bronchoconstriction reaction; assay: Action on immunoglobulin-G1 mediated bronchoconstriction reaction in guinea pigs; assay type: in vivo, Hartley guinea pigs; details: Cavia porcellus; 20 mg/kg oral, 1 hour before antigen
Method: Action on the Immunoglobulin-G1 Mediated Bronchoconstriction Reaction in Guinea Pigs
In accordance with the method of Orange and Moore (Orange, R. P. and Moore E. G. , J. Immunol., 116, 392-397, 1976), female and male Hartley guinea pigs weighing about 350 g were sensitized by intraperitoneal application of an emulsion (1 ml) composed of egg albumin (1 mg) and Freund's complete adjuvant (produced by Wako Pure-Chemical Industries, Ltd. of Japan). 3 Weeks after the sensitization, a serum antibody level in the sensitized guinea pigs was measured by means of the 3-hours passive cutaneous anaphylaxis (PCA) reaction in guinea pigs. […] The broncoconstriction reaction resulting from the antigen-antibody reaction was measured in accordance with the Konzett-Rossler method (Konzett, H. and Rossler, R., Naunyn-Schmiedeberg'ss Arch. exp. Path. pharmak., 195, 71-74, 1940). The guinea pigs were fixed on the dorsal position under anesthesia with a urethane (1.5 g/kg given intraperitonealy). An incision was made through the trachea, which was connected to an artificial respirator (manufactured by Harvard Co.) through an endotracheal tube, with a side tube of the endotracheal tube being attached to a brochoconstricting transducer (type 7020, manufactured by Ugobasile Co.). While an air volume per ventilation was adjusted to 5 to 7 ml and an air ventilation rate was controlled at 70 times/min., with a load pressure to the lung set at 10 cm H2 O, the overflown air volume was recorded on Rectigraphy-8S (manufactured by Sanei Sokki Inc. of Japan) through a transducer. After 1 mg/kg of gallamine triethiodide was given intravenously to the animals, 1 mg/kg of antigen, egg albumin dissolved in physiological saline, was applied intravenously to induce a brochoconstriction reaction. The bronchconstriction reaction was recorded for the period of time of 15 minutes. A drug was suspended in 5% gum arabic solution, and given orally 1 hour before the application of the antigen. Percent inhibition of the immunoglobuin G1 mediated bronchoconstriction reaction in guinea pigs are shown below in Table 3.

[2] = test system: PAF-induced bronchoconstriction; assay: Effect on PAF-induced bronchoconstriction in guinea pigs; assay type: in vivo; details: one hour before PAF
Method: Platelet Activating Factor (PAF)-Induced Bronchoconstriction in Guinea Pigs
Experimental procedure in this experiment was the same as that in LTD4 -induced bronchoconstriction shown in Experimental example 7. PAF is an intraveneous dose of 1 μg/kg was used. Each specimen suspended in a 5% gum arabic solution was given orally one hour before the PAF administration.

IC50 (5-Lipoxygenase) [µM] | Structure (SMILES) | inhibition in vivo at 20 mg/kg [1] [%] | further results
0.08 | CCOC(=O)CCCCC(C1=C(C)C(=O)C(C)=C(C)C1=O)c1cccs1 (stereo not drawn) [Compound No. 1, ethyl 6-(3,5,6-trimethyl-1,4-benzoquinon-2-yl)-6-(2-thienyl)hexanoate] |  | 
0.06 | CCOC(=O)CCCCC(C1=C(C)C(=O)c2ccccc2C1=O)c1cccs1 (stereo not drawn) [Compound No. 3] |  | 
0.03 | CCOC(=O)CCCCC(C1=C(C)C(=O)c2ccccc2C1=O)c1ccccc1 (stereo not drawn) [Compound No. 5] |  | 
0.028 | CCOC(=O)CCCCC(C1=C(C)C(=O)C(OC)=C(OC)C1=O)c1cccs1 (stereo not drawn) [Compound No. 6] |  | 
0.14 | CCOC(=O)CCCCC(C1=C(C)C(=O)C(OC)=C(OC)C1=O)c1ccccc1 (stereo not drawn) [Compound No. 7] |  | 
0.032 | CC1=C(C)C(=O)C(C(CCCCCCC(=O)O)c2ccccc2)=C(C)C1=O (stereo not drawn) [Compound No. 9, 8-phenyl-8-(3,5,6-trimethyl-1,4-benzoquinon-2-yl)octanoic acid] | 71 | 
0.034 | CC1=C(C)C(=O)C(C(CCCCC(=O)O)c2ccccc2)=C(C)C1=O (stereo not drawn) [Compound No. 10] | 80 | 
0.034 | CC1=C(C)C(=O)C(C(CCCCCCCCC(=O)O)c2ccccc2)=C(C)C1=O (stereo not drawn) [Compound No. 11] |  | 
 | CC1=C(C(CCCCC(=O)O)c2ccccc2)C(=O)c2ccccc2C1=O (stereo not drawn) [Compound No. 12] | 78 | 
0.08 | CC1=C(C(CCCCC(=O)O)c2cccs2)C(=O)c2ccccc2C1=O (stereo not drawn) [Compound No. 13] |  | 
0.2 | CC1=C(C(CCCCCCC(=O)O)c2ccccc2)C(=O)c2ccccc2C1=O (stereo not drawn) [Compound No. 14] | 78 | 
0.44 | CC1=C(C)C(=O)C(C(CCC(=O)O)c2ccccc2)=C(C)C1=O (stereo not drawn) [Compound No. 35, 4-(3,5,6-trimethyl-1,4-benzoquinon-2-yl)-4-phenylbutyric acid] |  | 
1.3 | COC1=C(OC)C(=O)C(C(CCC(=O)O)c2ccccc2)=C(C)C1=O (stereo not drawn) [Compound No. 39] |  | 
0.028 | CC1=C(C)C(=O)C(C(CCCCCCO)c2ccccc2)=C(C)C1=O (stereo not drawn) [Compound No. 45, 7-(3,5,6-trimethyl-1,4-benzoquinon-2-yl)-7-phenylheptanol] | 91 | 
0.062 | COC1=C(OC)C(=O)C(C(CCCCCCO)c2ccccc2)=C(C)C1=O (stereo not drawn) [Compound No. 56, 7-(5,6-dimethoxy-3-methyl-1,4-benzoquinon-2-yl)-7-phenylheptanol] |  | 
0.05 | CC1=C(C(CCCCCCCCC(=O)O)c2ccccc2)C(=O)c2ccccc2C1=O (stereo not drawn) [compound 15] |  | 
0.032 | COC1=C(OC)C(=O)C(C(CCCCC(=O)O)c2ccccc2)=C(C)C1=O (stereo not drawn) [compound 16] |  | 

IC50 (5-Lipoxygenase) [µM] | Structure (SMILES) | inhibition in vivo at 20 mg/kg [1] [%] | further results
0.2 | COC1=C(OC)C(=O)C(C(CCCCC(=O)O)c2cccs2)=C(C)C1=O (stereo not drawn) [compound 17] |  | 
0.2 | COC1=C(OC)C(=O)C(C(CCCCCCC(=O)O)c2ccccc2)=C(C)C1=O (stereo not drawn) [compound 18] |  | 
 | CC1=C(C)C(=O)C(C(CCCCCCC(=O)O)c2ccc3c(c2)CCC3)=C(C)C1=O (stereo not drawn) [compound 25] | 83 | 
 | COc1ccc(C(CCCCCC(=O)O)C2=C(C)C(=O)c3ccccc3C2=O)cc1 (stereo not drawn) [compound 26] | 85 | 
 | CC1=C(C(CCCCCC(=O)O)c2ccc3ccccc3c2)C(=O)c2ccccc2C1=O (stereo not drawn) [compound 27] | 81 | 
 | CC1=C(C(CCCCCC(=O)O)c2ccc3c(c2)CCC3)C(=O)c2ccccc2C1=O (stereo not drawn) [compound 28] | 85 | 
 | CC1=C(C(CCCCCCC(=O)O)c2ccc3c(c2)CCC3)C(=O)c2ccccc2C1=O (stereo not drawn) [compound 29] | 81 | 
 | CC1=C(C(CCCC(=O)O)c2ccccc2)C(=O)c2ccccc2C1=O (stereo not drawn) [compound 38] | 73 | 
0.73 | CC1=C(C)C(=O)C(C(CCCO)c2ccccc2)=C(C)C1=O (stereo not drawn) [compound 46] |  | 
 | CCCCCCC(C1=C(C)C(=O)C(C)=C(C)C1=O)c1ccccc1 (stereo not drawn) [compound 49] | 84 | 
 | CC1=C(C)C(=O)C(C(CCCCCCOC(N)=O)c2ccccc2)=C(C)C1=O (stereo not drawn) [compound 59] | 83 | 
 | CC1=C(C)C(=O)C(C(CCCCCCCO)c2ccc3c(c2)CCC3)=C(C)C1=O (stereo not drawn) [compound 76] | 89 | 
 | CC1=C(C(CCCCCC(=O)O)c2ccccc2)C(=O)c2ccccc2C1=O (stereo not drawn) [compound 86] | 80 | 
 | CC1=C(C(CCCCCC(=O)O)c2ccc(F)cc2)C(=O)c2ccccc2C1=O (stereo not drawn) [compound 89] | 65 | 
 | CC1=C(C)C(=O)C(C(CCCCCC(N)=O)c2ccccc2)=C(C)C1=O (stereo not drawn) [compound 146, 7-(3,5,6-trimethyl-1,4-benzoquinon-2-yl)-7-phenylheptanamide] |  | % Inhibition of PAF-induced bronchoconstriction ([2]; 0.31 mg/kg oral): 49.7%; % Inhibition of PAF-induced bronchoconstriction ([2]; 1.25 mg/kg oral): 80.3%; % Inhibition of PAF-induced bronchoconstriction ([2]; 5 mg/kg oral): 100.0%
 | CC1=C(C)C(=O)C(C(CCCCCC(=O)N2CCN(CCc3ccccc3)CC2)c2ccccc2)=C(C)C1=O (stereo not drawn) [compound 163, 4-[7-(3,5,6-trimethyl-1,4-benzoquinon-2-yl)-7-phenylheptanoyl]-(2-phenylethyl)piperazine] |  | % Inhibition of PAF-induced bronchoconstriction ([2]; 5 mg/kg oral): 59.9%
